Results on one molecule are retold here after US12583829B2, “Salt of benzothiazole compound, and crystal form and use thereof” (Sichuan Kelun Pharmaceutical Research Institute Co., Ltd., priority 2020, dated 2026).

The conditions of data set [1]: rats, FDA data for Mirapex ER (pramipexole dihydrochloride), NDA 22-421; cited from earlier work.
The nature of data set [2]: Solubility test in pure water, room temperature, HPLC. The class given is physicochemical. The following applies: thermodynamic from solid, excess sample, shaken at room temperature for 15 h, filtered.
Experimental: The samples were taken into pure water, and an excess amount of samples were added, which were then shaked at room temperature for 15 h, and filtered, and detected by HPLC. HPLC test conditions: mobile phase: sodium octanesulfonate-potassium dihydrogen phosphate buffer solution (5.0 g of sodium octanesulfonate and 9.1 g of potassium dihydrogen phosphate were taken, and added into 1000 ml of water for dissolution, and the pH was adjusted to 3.0 with phosphoric acid)-acetonitrile (72:28); The detection wavelength was 264 nm; The flow rate was 1.5 ml per minute; The column temperature was 40° C.; Injection volume: 10 μl; Chromatographic column: octadecyl silane bonded silica gel as filler (CAPCELL PAK MG II C18, 4.6 mm×250 mm, 5 μm).

One may read the Tmax as the time at which the peak concentration occurs. For orientation: solubility means how much of the substance goes into solution per volume. Low values mean a poorly soluble substance, high ones a readily soluble substance. As to `CCCN[C@H]1CCc2nc(N)sc2C1` [Compound of formula I, (S)-2-amino-4,5,6,7-tetrahydro-6-propylamine-benzothiazole], in data set [1], the T1/2 is reported as 3.18 h and the time of peak concentration (Tmax) was 0.5 h. The molecule also came in with a solubility at 15 h in data set [2] of 140 µg/mL.
